Measurements as given in article PMC6114082, “Synthesis of aminophenylhydroxamate and aminobenzylhydroxamate derivatives and in vitro screening for antiparasitic and histone deacetylase inhibitory activity” (International Journal for Parasitology: Drugs and Drug …, 2018).

Key:
[1] = tested on: L. tropica MHOM/BR/73/5-ASKM; test: Antileishmanial activity, L. tropica promastigotes; assay type: cell-based, Leishmania tropica; conditions: Leishmania tropica
Protocol: (§1) The antitrypanosomatid activity of the compounds was ascertained as follows. Leishmania parasites were cultured at 26 °C in SDM-79 medium supplemented with 10% fetal calf serum (FCS), and the antileishmanial activity was determined according to a previously published protocol for LUC-expressing and wild-type Leishmania ([Sereno et al., 2001], [Abbassi et al., 2008]). Trypanosoma brucei gambiense were grown at 26 °C in Cunningham's medium supplemented with 10% FCS, 2 mM GlutaMAX-1 (Gibco, USA), 100 U/ml penicillin, 100 μg/ml streptomycin and […] bovine hemin. The epimastigote form of Trypanosoma cruzi (strain Y cl7 scl2, lineage Tc2) (kindly provided by Philippe Truc and Christian Barnabé, UMR 177 IRD-CIRAD InterTryp, Montpellier, France) were grown at 26 °C in liver infusion tryptose (LIT) medium, supplemented with 10% FCS, 2 mM GlutaMAX™-I, 100 U/ml penicillin, 100 μg/ml streptomycin and bovine hemin (20 mg/l) (Gibco). The antitrypanosomatids activity was determined using a protocol that was initialy set up for wild-type Leishmania ([Abbassi et al., 2008]). To assess the drug activity on Toxoplasma gondii, confluent human foreskin fibroblast (HFF) monolayers were infected with YFP-type I Rh kindly provided by B. Striepen, see ([Striepen et al., 1998]) or Tomato-type II Pru kindly provided by N. Blanchard (Toulouse), expressing parasites at 5 × 10^4 per well, which were then centrifuged for 30 s at 1300 rpm and incubated for 30 min in a water bath at 37 °C to allow invasion. The wells were then washed three times with PBS to eliminate extracellular parasites, and the drugs were added at various concentrations ranging from 1 to 50 μM. After incubation for 24 h at 37 °C in a humidified atmosphere containing 5% CO2, the cells were fixed in 2.5% methanol-free formaldehyde (Tebu-bio)/PBS for 30 min at room temperature. Nuclei were stained with Hoechst 33258 (2 μg/ml, Molecular Probes) for 20 min and then washed three times with water for 10 min each time. The number of infected cells, i.e., cells harboring a parasitophorous vacuole, and the number of parasites per vacuole were determined using an Olympus ScanR microscope ( × 20 objective) and ScanR software. The parasitic index in % compared to the control was calculated as follows: (PI=((number of parasite/100 cells in treated wells) x (% of infected macrophage in treated well)/(number of parasite/100 cells in untreated wells) x (% of infected macrophage in untreated wells))*100).

[2] = tested on: L. braziliensis MHOM/BR/75/M209; test: Antileishmanial activity, L. braziliensis promastigotes (luciferase expressing strain); assay type: cell-based, Leishmania braziliensis; conditions: Leishmania braziliensis
Protocol: as §1

[3] = tested on: T. brucei MHOM/CI/81/DAL967; test: Antitrypanosomal activity, T. brucei; assay type: cell-based, Trypanosoma brucei gambiense; conditions: Trypanosoma brucei
Protocol: as §1

T. gondi RH-YFP = test: Anti-Toxoplasma activity in infected HFF monolayers, type I RH-YFP (parasitic index); assay type: cell-based, Toxoplasma gondii
[4] = tested on: Pru Type II strain of T. gondii; test: Anti-Toxoplasma activity in infected HFF monolayers, type II Pru strain; assay type: cell-based, Toxoplasma gondii; conditions: for IC50: 24 h, type II strain, in HFF
Protocol: as §1, with “The wells were then washed three times with PBS to eliminate extracellular parasites, and the drugs were added at various concentrations ranging from 1 to 50 μM. After incubation for 24 h at 37 °C in a humidified atmosphere containing 5% CO2, the cells were fixed in 2.5% methanol-free formaldehyde (Tebu-bio)/PBS for 30 min at room temperature. Nuclei were stained with Hoechst 33258 (2 μg/ml, Molecular Probes) for 20 min and then washed three times with water for 10 min each time.” left out

[5] = Cytotoxicity, MTT assay, HFF; assay type: cell-based, human; conditions: human, HFF cells
Protocol: (§2) The human monocytic cell line THP-1 was cultivated in RPMI medium supplemented with 10% FCS, 2 mM GlutaMAX, 100 U/ml penicillin, and 100 μg/ml streptomycin. HFF cells were cultivated in Dulbecco's modified Eagle's medium (DMEM) with Earle's salts containing 10% FCS, 10 mM HEPES, 1 mM sodium pyruvate, 2 mM GlutaMAX, 100 U/ml penicillin, and 100 μg/ml streptomycin. The THP-1 and HFF cells were maintained in a 5% CO2 incubator at 37 °C. Cytotoxicity was evaluated via the MTT assay, and the IC50 values were calculated using Prism software (Prism 4 for Mac OS X, version 5.0b, December, 2008).

[6] = Cytotoxicity, MTT assay, THP-1; assay type: cell-based, human; conditions: human, THP-1 cells (monocytic cell line); MTT assay
Protocol: as §2

THP-1 cells = test: Cytotoxicity, MTT assay, THP-1; assay type: cell-based, human
Protocol: as §2

[7] = Cytotoxicity, HEPG2 cell line; assay type: cell-based, human; conditions: human, HepG2 cells
HEPG2 cells = test: Cytotoxicity, HEPG2 cell line; assay type: cell-based, human
HDAC 1 = target: T1, HDAC 1 (Homo sapiens, UniProt Q13547); test: Fluorometric HDAC assay, recombinant HDAC1; assay type: biochemical
T1 construct: purchased Active Motif, Belgium
T1 sequence (Q13547 whole entry): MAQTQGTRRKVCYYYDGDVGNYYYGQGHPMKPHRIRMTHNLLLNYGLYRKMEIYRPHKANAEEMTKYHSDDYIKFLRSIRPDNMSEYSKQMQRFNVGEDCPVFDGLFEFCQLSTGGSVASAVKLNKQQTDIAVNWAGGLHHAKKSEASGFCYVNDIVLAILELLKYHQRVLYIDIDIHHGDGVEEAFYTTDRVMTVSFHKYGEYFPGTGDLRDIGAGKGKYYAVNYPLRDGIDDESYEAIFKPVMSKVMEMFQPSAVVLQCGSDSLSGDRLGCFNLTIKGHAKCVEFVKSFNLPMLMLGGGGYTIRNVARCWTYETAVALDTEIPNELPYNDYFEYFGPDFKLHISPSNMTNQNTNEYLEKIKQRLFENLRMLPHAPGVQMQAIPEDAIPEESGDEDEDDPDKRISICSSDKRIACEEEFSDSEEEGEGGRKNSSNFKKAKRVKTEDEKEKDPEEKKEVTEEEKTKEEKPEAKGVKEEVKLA
Protocol: The HDACi effect against HeLa nuclear extracts and recombinant proteins were measured using a fluorometric HDAC assay kit (Active Motif, Belgium) according to the manufacturer's instructions. Briefly, 30 μL of HeLa nuclear extract (Active Motif, Belgium) or various HDAC recombinant proteins (Active Motif, Belgium) was mixed with 5 μL of a 10 × compound and 10 μL of assay buffer. A negative control containing trichostatin A at a final concentration of 2 μM was analyzed for each independent experiment. A fluorogenic substrate (10 μL) was added, and the reaction was allowed to proceed for 30 min at room temperature and then stopped by the addition of a developer containing trichostatin A. The fluorescence was monitored after 30 min at excitation and emission wavelengths of 360 and 460 nm, respectively.

HDAC 3 = target: T2, HDAC 3 (Homo sapiens, UniProt O15379); test: Fluorometric HDAC assay, recombinant HDAC3; assay type: biochemical
T2 construct: purchased Active Motif, Belgium
T2 sequence (O15379 whole entry): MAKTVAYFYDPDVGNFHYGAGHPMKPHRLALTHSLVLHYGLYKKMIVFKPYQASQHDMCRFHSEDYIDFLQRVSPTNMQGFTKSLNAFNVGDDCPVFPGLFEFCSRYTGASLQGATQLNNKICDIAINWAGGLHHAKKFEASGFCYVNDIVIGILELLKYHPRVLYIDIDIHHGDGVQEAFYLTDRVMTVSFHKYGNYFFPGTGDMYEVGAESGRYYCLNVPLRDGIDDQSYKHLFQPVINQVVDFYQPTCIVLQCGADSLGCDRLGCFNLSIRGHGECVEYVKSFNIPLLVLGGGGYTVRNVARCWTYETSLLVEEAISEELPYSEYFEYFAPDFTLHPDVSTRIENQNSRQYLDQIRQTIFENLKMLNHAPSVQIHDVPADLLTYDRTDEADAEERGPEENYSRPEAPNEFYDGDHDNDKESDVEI
T2 sequence (O75376 395-489 partner limits assumed): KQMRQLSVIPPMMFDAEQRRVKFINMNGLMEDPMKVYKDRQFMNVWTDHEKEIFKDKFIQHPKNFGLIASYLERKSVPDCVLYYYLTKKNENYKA
Protocol: (§3) The HDACi effect against HeLa nuclear extracts and recombinant proteins were measured using a fluorometric HDAC assay kit (Active Motif, Belgium) according to the manufacturer's instructions. […] A negative control containing trichostatin A at a final concentration of 2 μM was analyzed for each independent experiment.

[8] = tested on: T. gondii deacetylase activity (total protein extract); test: Deacetylase activity of total protein extract of T. gondii tachyzoites; assay type: biochemical, Toxoplasma gondii; conditions: 0.125 μM
Protocol: as §3
HDAC activity was determined from total protein extracted from T. gondii.

**Q.** Which IC50 [1] does the source give for `COc1cccc(CC(=O)Nc2ccc(C(=O)NO)cc2)c1` [Compound 363, N-hydroxy-4-[2-(3-methoxyphenyl)acetamido]benzamide] here?
**A.** Its IC50 is greater than 60000 nM.

**Q.** What about the IC50 [2] of the same molecule?
**A.** The IC50 was greater than 60000 nM.

**Q.** And the IC50 [3]?
**A.** Its IC50 is greater than 60000 nM.

**Q.** What about the “IS^a selectivity index for T. gondi” value (T. gondi RH-YFP; IC50 HFF / IC50 T. gondi RH-YFP) of the same molecule?
**A.** Its value is 300.

**Q.** And the IC50 (T. gondi RH-YFP; Toxoplasma gondii, read-out: anti-Toxoplasma activity IC50, range over strains, type I and type II strains together (abstract))?
**A.** Its IC50 is 350 to 2250 nM.

**Q.** What about the “selectivity index, range over human cell lines” value (T. gondi RH-YFP; using different human cell lines) of the same molecule?
**A.** Its value is 10–300.

**Q.** What about the “IS^a selectivity index for T. gondii, second value marked #” value ([4]; IC50 HFF / IC50 T. gondii type II Pru strain) of the same molecule?
**A.** Its value is 46.

**Q.** And the IC50 ([4]; Toxoplasma gondii)?
**A.** The IC50 was 2250 nM.

**Q.** And the IC50 [4]?
**A.** Its IC50 is 2270 nM.

**Q.** And the IC50 [5]?
**A.** The IC50 was 105000 ± 10500 nM.

**Q.** What about the IC50 [6] of the same molecule?
**A.** Its IC50 is 3600 ± 500 nM.

**Q.** What about the “selectivity index, THP-1 cells vs T. gondii” value (THP-1 cells) of the same molecule?
**A.** Its value is 10.

**Q.** And the IC50 [7]?
**A.** Its IC50 is greater than 15000 nM.

**Q.** And the “index of selectivity, HEPG2 vs T. gondii tachyzoites” value (HEPG2 cells)?
**A.** Its value is 42.

**Q.** And the “Fold, HDAC 1” value (HDAC 1; 363 as compared to SAHA)?
**A.** Its value is 2.43.

**Q.** What about the IC50 (HDAC 1; recombinant protein, read-out: rHDAC 1 IC50) of the same molecule?
**A.** The IC50 was 257 ± 50 nM.

**Q.** And the “Fold, HDAC 3” value (HDAC 3; 363 as compared to SAHA)?
**A.** The value was 1.06.

**Q.** And the IC50 (HDAC 3; recombinant protein, read-out: rHDAC 3 IC50)?
**A.** The IC50 was 160 ± 52 nM.

**Q.** What about the “inhibition of T. gondii deacetylase activity” value [8] of the same molecule?
**A.** Its value is 44%.
